Values after ≈ are worked out from the molar mass of the structure shown.
Legend:
[1] = tested on: Staphylococcus epidermidis; assay: Antibacterial activity against methicillin-sensitive Staphylococcus epidermidis ATCC 12228 after 18 hrs by CLSI broth microdilution method; assay type: functional; settings: ATCC 12228, 18 h
[2] = tested on: Staphylococcus epidermidis; assay: Antibacterial activity against methicillin-resistant Staphylococcus epidermidis 12-8 after 18 hrs by CLSI broth microdilution method; assay type: functional; settings: 12-8, 18 h
Staphylococcus aureus [3] = assay: Antibacterial activity against methicillin-sensitive Staphylococcus aureus ATCC 29213 after 18 hrs by CLSI broth microdilution method; assay type: functional; settings: ATCC 29213, 18 h
Staphylococcus aureus [4] = assay: Antibacterial activity against methicillin-resistant Staphylococcus aureus 12-33 after 18 hrs by CLSI broth microdilution method; assay type: functional; settings: 12-33, 18 h
Enterococcus faecalis [5] = assay: Antibacterial activity against vancomycin-sensitive Enterococcus faecalis ATCC 29212 after 18 hrs by CLSI broth microdilution method; assay type: functional; settings: ATCC 29212, 18 h
Enterococcus faecalis [6] = assay: Antibacterial activity against vancomycin-resistant Enterococcus faecalis 09-9 after 18 hrs by CLSI broth microdilution method; assay type: functional; settings: 09-9, 18 h
Enterococcus faecium [7] = assay: Antibacterial activity against vancomycin-resistant Enterococcus faecium ATCC 700221 after 18 hrs by CLSI broth microdilution method; assay type: functional; settings: ATCC 700221, 18 h
Enterococcus faecium [8] = assay: Antibacterial activity against vancomycin-sensitive Enterococcus faecium 12-3 after 18 hrs by CLSI broth microdilution method; assay type: functional; settings: 12-3, 18 h
Escherichia coli [9] = assay: Antibacterial activity against extended-spectrum beta-lactamase deficient Escherichia coli ATCC 25922 after 18 hrs by CLSI broth microdilution method; assay type: functional; settings: ATCC 25922, 18 h
Escherichia coli [10] = assay: Antibacterial activity against extended-spectrum beta-lactamase harboring Escherichia coli 12-15 after 18 hrs by CLSI broth microdilution method; assay type: functional; settings: 12-15, 18 h
Klebsiella pneumoniae [11] = assay: Antibacterial activity against extended-spectrum beta-lactamase harboring Klebsiella pneumoniae ATCC 700603 after 18 hrs by CLSI broth microdilution method; assay type: functional; settings: Klebsiella pneumoniae, 700603, 18 h
Klebsiella pneumoniae [12] = assay: Antibacterial activity against new delhi metallo-beta-lactamase-1 harboring Klebsiella pneumoniae ATCC BAA-2146 after 18 hrs by CLSI broth microdilution method; assay type: functional; settings: ATCC BAA-2146, 18 h
Klebsiella pneumoniae [13] = assay: Antibacterial activity against extended-spectrum beta-lactamase harboring Klebsiella pneumoniae 12-8 after 18 hrs by CLSI broth microdilution method; assay type: functional; settings: 12-8, 18 h
Pseudomonas aeruginosa [14] = assay: Antibacterial activity against Pseudomonas aeruginosa ATCC 27853 after 18 hrs by CLSI broth microdilution method; assay type: functional; settings: ATCC 27853, 18 h
[15] = tested on: Acinetobacter calcoaceticus; assay: Antibacterial activity against Acinetobacter calcoaceticus ATCC 19606 after 18 hrs by CLSI broth microdilution method; assay type: functional; settings: ATCC 19606, 18 h
Enterobacter cloacae = assay: Antibacterial activity against Enterobacter cloacae ATCC 43560 after 18 hrs by CLSI broth microdilution method; assay type: functional; settings: ATCC 43560, 18 h
Proteus mirabilis = assay: Antibacterial activity against Proteus mirabilis 12-6 after 18 hrs by CLSI broth microdilution method; assay type: functional; settings: 12-6, 18 h
[16] = Cytotoxicity against HEK293T cells assessed as reduction in cell viability after 48 hrs by MTS assay; assay type: cell-based, HEK-293T; settings: human
[17] = tested on: Staphylococcus epidermidis; assay: Antibacterial activity against methicillin-sensitive Staphylococcus epidermidis 12-6 after 18 hrs by CLSI broth microdilution method; assay type: functional; settings: 12-6, 18 h
Staphylococcus aureus [18] = assay: Antibacterial activity against methicillin-resistant Staphylococcus aureus ATCC 33591 after 18 hrs by CLSI broth microdilution method; assay type: functional; settings: ATCC 33591, 18 h
Staphylococcus aureus [19] = assay: Antibacterial activity against methicillin-sensitive Staphylococcus aureus 15 after 18 hrs by CLSI broth microdilution method; assay type: functional; settings: Staphylococcus aureus, 15, 18 h
Staphylococcus aureus [20] = assay: Antibacterial activity against methicillin-sensitive Staphylococcus aureus 12-28 after 18 hrs by CLSI broth microdilution method; assay type: functional; settings: 12-28, 18 h
Enterococcus faecalis [21] = assay: Antibacterial activity against vancomycin-resistant Enterococcus faecalis ATCC 51299 after 18 hrs by CLSI broth microdilution method; assay type: functional; settings: ATCC 51299, 18 h
Enterococcus faecalis [22] = assay: Antibacterial activity against vancomycin-sensitive Enterococcus faecalis 12-5 after 18 hrs by CLSI broth microdilution method; assay type: functional; settings: 12-5, 18 h
Enterococcus faecium [23] = assay: Antibacterial activity against vancomycin-resistant Enterococcus faecium 12-1 after 18 hrs by CLSI broth microdilution method; assay type: functional; settings: 12-1, 18 h
Escherichia coli [24] = assay: Antibacterial activity against extended-spectrum beta-lactamase deficient Escherichia coli 1515 after 18 hrs by CLSI broth microdilution method; assay type: functional; settings: Escherichia coli, 1515, 18 h
Escherichia coli [25] = assay: Antibacterial activity against extended-spectrum beta-lactamase deficient Escherichia coli 12-14 after 18 hrs by CLSI broth microdilution method; assay type: functional; settings: 12-14, 18 h
Klebsiella pneumoniae [26] = assay: Antibacterial activity against extended-spectrum beta-lactamase deficient Klebsiella pneumoniae 7 after 18 hrs by CLSI broth microdilution method; assay type: functional; settings: Klebsiella pneumoniae, 7, 18 h
Klebsiella pneumoniae [27] = assay: Antibacterial activity against extended-spectrum beta-lactamase deficient Klebsiella pneumoniae 12-4 after 18 hrs by CLSI broth microdilution method; assay type: functional; settings: 12-4, 18 h
Pseudomonas aeruginosa [28] = assay: Antibacterial activity against Pseudomonas aeruginosa PAO1 after 18 hrs by CLSI broth microdilution method; assay type: functional; settings: PAO1, 18 h
Pseudomonas aeruginosa [29] = assay: Antibacterial activity against Pseudomonas aeruginosa 12-16 after 18 hrs by CLSI broth microdilution method; assay type: functional; settings: 12-16, 18 h
Klebsiella aerogenes = assay: Antibacterial activity against Enterobacter aerogenes ATCC 13048 after 18 hrs by CLSI broth microdilution method; assay type: functional; settings: ATCC 13048, 18 h
Serratia marcescens = assay: Antibacterial activity against Serratia marcescens ATCC 21074 after 18 hrs by CLSI broth microdilution method; assay type: functional; settings: ATCC 21074, 18 h
Providencia rettgeri = assay: Antibacterial activity against Providencia rettgeri ATCC 31052 after 18 hrs by CLSI broth microdilution method; assay type: functional; settings: ATCC 31052, 18 h
Proteus vulgaris = assay: Antibacterial activity against Proteus vulgaris ATCC 29905 after 18 hrs by CLSI broth microdilution method; assay type: functional; settings: ATCC 29905, 18 h
[30] = tested on: Stenotrophomonas maltophilia; assay: Antibacterial activity against Stenotrophomonas maltophilia ATCC 13636 after 18 hrs by CLSI broth microdilution method; assay type: functional; settings: ATCC 13636, 18 h
Citrobacter freundii = assay: Antibacterial activity against Citrobacter freundii ATCC 43864 after 18 hrs by CLSI broth microdilution method; assay type: functional; settings: ATCC 43864, 18 h

Compound | MIC [1] | MIC [2] | MIC (Staphylococcus aureus [3]) | MIC (Staphylococcus aureus [4]) | MIC (Enterococcus faecalis [5]) | MIC (Enterococcus faecalis [6]) | MIC (Enterococcus faecium [7]) | MIC (Enterococcus faecium [8]) | MIC (Escherichia coli [9]) | MIC (Escherichia coli [10]) | MIC (Klebsiella pneumoniae [11]) | MIC (Klebsiella pneumoniae [12]) | MIC (Klebsiella pneumoniae [13]) | MIC (Pseudomonas aeruginosa [14]) | MIC [15] | MIC (Enterobacter cloacae) | MIC (Proteus mirabilis) | CC50 at 48 h [16] | MIC [17] | MIC (Staphylococcus aureus [18]) | also measured
CC(C)NC(=N)c1ccc2cc(-c3cncc(-c4cc5ccc(C(=N)NC(C)C)cc5[nH]4)c3)[nH]c2c1 | 8 µg/mL (≈ 16.7 µM) | 8 µg/mL (≈ 16.7 µM) | 8 µg/mL (≈ 16.7 µM) | 32 µg/mL (≈ 67 µM) | > 64 µg/mL | > 64 µg/mL | > 64 µg/mL | > 64 µg/mL | > 64 µg/mL | > 64 µg/mL | > 64 µg/mL | > 64 µg/mL | > 64 µg/mL | > 64 µg/mL | > 64 µg/mL | > 64 µg/mL | > 64 µg/mL | 26.5 µg/mL (≈ 55.4 µM) | 2 µg/mL (≈ 4.19 µM) | 16 µg/mL (≈ 33.5 µM) | MIC (Staphylococcus aureus [19]): 16 µg/mL (≈ 33.5 µM); MIC (Staphylococcus aureus [20]): 16 µg/mL (≈ 33.5 µM); MIC (Enterococcus faecalis [21]): > 64 µg/mL; MIC (Enterococcus faecalis [22]): > 64 µg/mL; MIC (Enterococcus faecium [23]): > 64 µg/mL; MIC (Escherichia coli [24]): > 64 µg/mL; MIC (Escherichia coli [25]): > 64 µg/mL; MIC (Klebsiella pneumoniae [26]): > 64 µg/mL; MIC (Klebsiella pneumoniae [27]): > 64 µg/mL; MIC (Pseudomonas aeruginosa [28]): > 64 µg/mL; MIC (Pseudomonas aeruginosa [29]): > 64 µg/mL; MIC (Klebsiella aerogenes): > 64 µg/mL; MIC (Serratia marcescens): > 64 µg/mL; MIC (Providencia rettgeri): > 64 µg/mL; MIC (Proteus vulgaris): > 64 µg/mL; MIC [30]: > 64 µg/mL; MIC (Citrobacter freundii): > 64 µg/mL
CN(C)CCNC(=N)c1ccc2cc(-c3ccc(-c4cc5ccc(C(=N)NCCN(C)C)cc5[nH]4)cc3)[nH]c2c1 | 0.5 µg/mL (≈ 0.935 µM) | 1 µg/mL (≈ 1.87 µM) | 2 µg/mL (≈ 3.74 µM) | 2 µg/mL (≈ 3.74 µM) | 4 µg/mL (≈ 7.48 µM) | 4 µg/mL (≈ 7.48 µM) | 4 µg/mL (≈ 7.48 µM) | 8 µg/mL (≈ 15 µM) | 8 µg/mL (≈ 15 µM) | 16 µg/mL (≈ 29.9 µM) | 16 µg/mL (≈ 29.9 µM) | 8 µg/mL (≈ 15 µM) | 8 µg/mL (≈ 15 µM) | 16 µg/mL (≈ 29.9 µM) | > 128 µg/mL | 8 µg/mL (≈ 15 µM) | 128 µg/mL (≈ 239 µM) | 31.2 µg/mL (≈ 58.4 µM) | 0.5 µg/mL (≈ 0.935 µM) | 2 µg/mL (≈ 3.74 µM) | MIC (Staphylococcus aureus [19]): 2 µg/mL (≈ 3.74 µM); MIC (Staphylococcus aureus [20]): 2 µg/mL (≈ 3.74 µM); MIC (Enterococcus faecalis [21]): 4 µg/mL (≈ 7.48 µM); MIC (Enterococcus faecalis [22]): 4 µg/mL (≈ 7.48 µM); MIC (Enterococcus faecium [23]): 4 µg/mL (≈ 7.48 µM); MIC (Escherichia coli [24]): 8 µg/mL (≈ 15 µM); MIC (Escherichia coli [25]): 8 µg/mL (≈ 15 µM); MIC (Klebsiella pneumoniae [26]): 8 µg/mL (≈ 15 µM); MIC (Klebsiella pneumoniae [27]): 8 µg/mL (≈ 15 µM); MIC (Pseudomonas aeruginosa [28]): 64 µg/mL (≈ 120 µM); MIC (Pseudomonas aeruginosa [29]): 64 µg/mL (≈ 120 µM); MIC (Klebsiella aerogenes): 8 µg/mL (≈ 15 µM); MIC (Serratia marcescens): 16 µg/mL (≈ 29.9 µM); MIC (Providencia rettgeri): 16 µg/mL (≈ 29.9 µM); MIC (Proteus vulgaris): 16 µg/mL (≈ 29.9 µM); MIC [30]: 16 µg/mL (≈ 29.9 µM); MIC (Citrobacter freundii): 8 µg/mL (≈ 15 µM)
